Results reported in patent US4794115A, “Method of treating hyperlipemia” (Terumo Corporation, priority 1985, dated 1988).

Test system: Wistar-King male rats
Experiment: Serum total cholesterol and triglycerides in cholesterol/cholic acid/corn oil-loaded rats after 7 days oral administration
Assay type: in vivo
Details: once a day for 7 days, 4 hours after last administration, mean of 6 rats; for Serum lipid level, total cholesterol: control 210.0; for Serum lipid level, triglyceride: control 621.7
Protocol: Wistar-King male rats weighing 170 g are orally administered with 5% acacia gum suspension of the compound obtained in Example 1 or 2. Thirty minutes thereafter, a mixture of 10% cholesterol, 1% cholic acid and corn oil is orally administered at a dose of 10 ml/kg.
The above-described administration is made once a day for consecutive 7 days, and 4 hours after the last administration blood is drawn from the abdominal large artery of the rats under ether anesthesia. The blood is centrifuged at 1630×g at 4° C. for 10 min. to isolate serum. Measurements were made on serum levels of total cholesterol and triglycerides by means of serum lipid reagents, V-cholestase (Nissui, trade name for the total cholesterol) and V-Triglase (Nissui, trade name for the triglycerides). Results are shown in Table 1, in which mean values for a group of 6 animals are shown.

SMILES	Serum lipid level, total cholesterol (dose 1.2 mM/kg)	Serum lipid level, triglyceride (dose 1.2 mM/kg)	Serum lipid level, total cholesterol (dose 2.4 mM/kg)	Serum lipid level, triglyceride (dose 2.4 mM/kg)
CC/C=C\C/C=C\C/C=C\CCCCCCCC(=O)NCCOC(=O)c1cccnc1 [Example 1, N-(9,12,15-octadecatrienoyl)-2-aminoethyl nicotinate]	198.9 mg/dL	350.1 mg/dL	146.6 mg/dL	258.4 mg/dL
O=C(O)c1cccnc1 [Nicotinic acid, reference compound]	–	–	195.4 mg/dL	312.2 mg/dL
CC/C=C\C/C=C\C/C=C\C/C=C\C/C=C\CCCC(=O)NCCOC(=O)c1cccnc1 [Example 2, N-(5,8,11,14,17-eicosapentaenoyl)-2-aminoethyl nicotinate]	194.8 mg/dL	296.4 mg/dL	130.4 mg/dL	202.8 mg/dL
